Test results from patent US4119657A, “Novel peroxycarbonate” (priority 1976, dated 1978).
Read-outs that look alike come from different tables or passages of the source.

Legend:
[1] = prior art peroxide, peroxy group in the copolymer; cited from earlier work
[2] = 105° C
Excerpt: The susceptibility of the peroxycarbonate to heat decomposition can be ascertained from its half life and the foaming temperature thereof.

[3] = Foaming decomposition temperature; assay type: physicochemical
[4] = prior art peroxide; cited from earlier work

Molecule	decomposition activity, in words [1]	Half life ([2]; solvent benzene) [h]	Half life ([2]; solvent toluene) [h]	foaming decomposition temperature [3] [°C]	storage stability, in words [4]
C/C=C/C(=O)OOC(C)(C)C [t-butylperoxycrotonate]	active at low temperature				
C=C(C)COC(=O)OOC(C)(C)C [t-butylperoxy methallyl carbonate]		2.9	4.9	117.5	
CC(C)OC(=O)OOC(C)(C)C [t-butylperoxy isopropyl carbonate, reference compound]		4.1			
t-hexylperoxy allyl carbonate		3.8		107.3	
CC(C)C(=O)OOC(C)(C)C [t-butyl peroxy isobutyrate, t-butyl peroxyisobutyrate, reference compound]		0.37			
C=C(C)COC(=O)OOC(C)(C)CC(C)(C)C [1,1,3,3-tetramethylbutylperoxy methallyl carbonate]		1.1		106.5	
C=CCOC(=O)OOC(C)(C)C [t-butylperoxy allyl carbonate]		3.9	6.9	117.5	
C=CCOC(=O)OOC(C)(C)CC(C)(C)C [1,1,3,3-tetramethylbutylperoxy allyl carbonate]		1.4		103.5	
butyl peroxymethacrylate					not stable during storage
t-hexylperoxy methallyl carbonate		2.9		115.5	
